Test results reported in PMC10935723 (Chemical Science, 2024).

Key:
[1] = tested on: MCF-7 breast cancer cells; test: cells; assay type: cell-based; details: Homo sapiens, MCF7, 72 h, read-out: IC50 against MCF-7 breast cancer cells
[2] = tested on: HCT-15; details: read-out: IC50 HCT-15; cited from earlier work
[3] = tested on: SUIT2, MIA PaCa-2 and MDA-MB-231 cell lines; test: cells; assay type: cell-based; details: read-out: IC50 values (range)
[4] = tested on: NCI-H460; details: read-out: IC50 NCI-H460; cited from earlier work
[5] = tested on: patient-derived PDAC organoids; assay type: cell-based, human
[6] = tested on: MIA PaCa-2/GemLuc cells; assay type: cell-based

C[C@]12CC[C@@H]3c4ccc(O)cc4CC[C@H]3[C@@H]1CCC2=O [estrone (5), Estrone]
IC50 [1]: > 200000 nM

COc1ccc(/C=C\c2cc(OC)c(OC)c(OC)c2)cc1O [CA-4, combretastatin A4]
IC50 [2]: 1.7 nM | IC50 [3]: 2.4 to 8.7 nM | IC50 [4]: 3 nM

Cc1cc2cc(O)ccc2[nH]1 [Compound L01, 2-Methyl-1H-indol-5-ol]
antiproliferative activity against patient-derived PDAC organoids [5]: no antiproliferative activity | cell cycle arrest (red S/G2/M bioluminescence) [6]: failed to elicit the same effect
